Test results as given in the NIST ThermoML archive (doi:10.1016/j.fluid.2013.10.060).
± gives the expanded uncertainty stated by the source.

Columns and labels:
[1] = refractive index (Na D-line) (dimensionless); details: 298.15 K; 101.33 kPa; Liquid; Standard Abbe refractometry
[2] = for mass density: 298.15 K, 101.33 kPa, Liquid, Vibrating tube method; for surface tension liquid-gas: 303.15 K, Maximal bubble pressure
[3] = Boiling temperature at pressure P; details: 101.33 kPa; Liquid; Ebulliometric method (Recirculating still)

refractive index [1] | mass density [2] | surface tension liquid-gas [2] | Boiling temperature at pressure P [3] | SMILES
1.36068 ± 0.00031 | 785.09 ± 0.15 kg/m3 | 21.7 ± 0.18 mN/m | 78.30 ± 0.02 °C | CCO [ethanol]
1.42 ± 0.00031 | 879.03 ± 0.13 kg/m3 | 27.1 ± 0.2 mN/m | 88.21 ± 0.02 °C | C1CCOCC1 [tetrahydropyran]

SMILES | refractive index [1] | mass density [2] | surface tension liquid-gas [2] | Boiling temperature at pressure P [3]
CCCCCC [hexane] | 1.37374 ± 0.00031 | 655.19 ± 0.18 kg/m3 | 17.4 ± 0.16 mN/m | –
